Assays:
Experiment in all cases: relative viability (nuclei count vs DMSO), 5 days (fraction); higher = more cells survive
Doramapimod + Decitabine = compound: Cc1ccc(-n2nc(C(C)(C)C)cc2NC(=O)Nc2ccc(OCCN3CCOCC3)c3ccccc23)cc1 [Doramapimod] + Nc1ncn([C@H]2C[C@H](O)[C@@H](CO)O2)c(=O)n1 [Decitabine] (partner 2 µM)
In short: (§1)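 Relative viability was taken as the ratio of nuclei in treated wells to nuclei in vehicle wells. Lung cancer cell lines in 1536-well plates received compounds by pin tool one day after seeding, either one drug alone or a fixed anchor-drug dose plus five library-drug doses (not always all listed) in √10 steps. Nuclei were counted on 4× images after 5 days of treatment, and values are medians of duplicate plates.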

IPA-3 + Palbociclib = compound: C1=CC=C2C(=C1)C=CC(=C2SSC3=C(C=CC4=CC=CC=C43)O)O [IPA-3] + CC(=O)c1c(C)c2cnc(Nc3ccc(N4CCNCC4)cn3)nc2n(C2CCCC2)c1=O [Palbociclib] (partner 0.5 µM)
In short: as §1

RAF265 + Palbociclib = compound: Cn1c(Nc2ccc(C(F)(F)F)cc2)nc2cc(Oc3ccnc(-c4ncc(C(F)(F)F)[nH]4)c3)ccc21 [RAF265] + CC(=O)c1c(C)c2cnc(Nc3ccc(N4CCNCC4)cn3)nc2n(C2CCCC2)c1=O [Palbociclib] (partner 0.5 µM)
In short: as §1

Doramapimod + Luminespib = compound: Cc1ccc(-n2nc(C(C)(C)C)cc2NC(=O)Nc2ccc(OCCN3CCOCC3)c3ccccc23)cc1 [Doramapimod] + CCNC(=O)c1noc(-c2cc(C(C)C)c(O)cc2O)c1-c1ccc(CN2CCOCC2)cc1 [Luminespib] (partner 0.01 µM)
In short: as §1

## UMC-11
Doramapimod + Decitabine; first compound 0.02 µM
  relative viability: 0.65
Doramapimod + Decitabine; first compound 0.06325 µM
  relative viability: 0.584
Doramapimod + Decitabine; first compound 0.2 µM
  relative viability: 0.646
Doramapimod + Decitabine; first compound 0.6325 µM
  relative viability: 0.723
Doramapimod + Decitabine; first compound 2 µM
  relative viability: 0.419
IPA-3 + Palbociclib; first compound 0.2 µM
  relative viability: 0.323
IPA-3 + Palbociclib; first compound 0.6325 µM
  relative viability: 0.333
IPA-3 + Palbociclib; first compound 2 µM
  relative viability: 0.312
IPA-3 + Palbociclib; first compound 6.325 µM
  relative viability: 0.328
IPA-3 + Palbociclib; first compound 20 µM
  relative viability: 0.337
RAF265 + Palbociclib; first compound 0.01 µM
  relative viability: 0.309
RAF265 + Palbociclib; first compound 0.03162 µM
  relative viability: 0.336
RAF265 + Palbociclib; first compound 0.1 µM
  relative viability: 0.334
RAF265 + Palbociclib; first compound 0.3162 µM
  relative viability: 0.314
RAF265 + Palbociclib; first compound 1 µM
  relative viability: 0.32
Doramapimod + Luminespib; first compound 0.02 µM
  relative viability: 0.911
Doramapimod + Luminespib; first compound 0.06325 µM
  relative viability: 0.869
Doramapimod + Luminespib; first compound 0.2 µM
  relative viability: 0.904
Doramapimod + Luminespib; first compound 0.6325 µM
  relative viability: 0.965
Doramapimod + Luminespib; first compound 2 µM
  relative viability: 0.913

Reference: the supplement of paper PMC10307832
